For data set [1], the system named is Bacillus subtilis. The data set can be described thus: Antimicrobial activity against Bacillus subtilis ATCC 23857 assessed as reduction in microbial growth incubated for 18 hrs by Mueller-Hinton Broth based microdilution assay. Format: functional. (In general: Dilution methods test growth across graded concentrations, often in twofold steps.)
The subject of data set [2] is Klebsiella pneumoniae. In words: Antimicrobial activity against Klebsiella pneumoniae ATCC 700603 assessed as reduction in microbial growth incubated for 18 hrs by Mueller-Hinton Broth based microdilution assay. The class given is functional.
For data set [3], the system named is Pseudomonas aeruginosa. The data set can be described thus: Antimicrobial activity against Pseudomonas aeruginosa ATCC 27853 assessed as reduction in microbial growth incubated for 18 hrs by Mueller-Hinton Broth based microdilution assay. The class given is functional.
Data set [4] deals with Staphylococcus aureus. The data set can be described thus: Antibacterial activity against Staphylococcus aureus ATCC 25923 assessed as reduction in bacterial growth incubated for 18 hrs by Mueller-Hinton Broth based microdilution assay. Format: functional.
The subject of data set [5] is Escherichia coli. The data set can be described thus: Antibacterial activity against Escherichia coli ATCC 25922 assessed as reduction in bacterial growth incubated for 18 hrs by Mueller-Hinton Broth based microdilution assay. The class given is functional.
Data set [6] concerns Staphylococcus aureus. The data set can be described thus: Antibacterial activity against Staphylococcus aureus ATCC 25923 assessed as reduction in bacterial cell growth incubated for 16 to 24 hrs by CLSI-protocol based Mueller-Hinton Broth micro-dilution method. Format: functional. As to conditions: time 16-24 hrs.
In data set [7] the test system is Bacillus subtilis. In words: Antibacterial activity against Bacillus subtilis ATCC 23857 assessed as reduction in bacterial cell growth incubated for 16 to 24 hrs by CLSI-protocol based Mueller-Hinton Broth micro-dilution method. The class given is functional. As to conditions: time 16-24 hrs.
The subject of data set [8] is Escherichia coli. The data set can be described thus: Antibacterial activity against Escherichia coli ATCC 25922 assessed as reduction in bacterial cell growth incubated for 16 to 24 hrs by CLSI-protocol based Mueller-Hinton Broth micro-dilution method. The class given is functional. As to conditions: time 16-24 hrs.
For data set [9], the system named is Pseudomonas aeruginosa. The data set can be described thus: Antibacterial activity against Pseudomonas aeruginosa ATCC 27853 assessed as reduction in bacterial cell growth incubated for 16 to 24 hrs by CLSI-protocol based Mueller-Hinton Broth micro-dilution method. Format: functional. As to conditions: time 16-24 hrs.
Data set [10] deals with Klebsiella pneumoniae. The data set can be described thus: Antibacterial activity against Klebsiella pneumoniae ATCC 700603 assessed as reduction in bacterial cell growth incubated for 16 to 24 hrs by CLSI-protocol based Mueller-Hinton Broth micro-dilution method. The class given is functional. As to conditions: time 16-24 hrs.
Another data set deals with Erythrocyte. In words: Hemolytic activity in human erythrocyte incubated for 70 mins by absorbance based assay. The class given is toxicity, cell-based. As to conditions: 1.167 h.
In data set [11] the test system is Staphylococcus aureus. In words: Antibacterial activity against Staphylococcus aureus ATCC 25923 assessed as reduction in bacterial cell growth measured for 18 hrs by Mueller-Hinton broth based two-fold serial dilution method. Format: functional.
Data set [12] deals with Bacillus subtilis. The data set can be described thus: Antibacterial activity against Bacillus subtilis ATCC 23857 assessed as reduction in bacterial cell growth measured for 18 hrs by Mueller-Hinton broth based two-fold serial dilution method. The class given is functional.
Data set [13] relates to Escherichia coli. In words: Antibacterial activity against Escherichia coli ATCC 25922 assessed as reduction in bacterial cell growth measured for 18 hrs by Mueller-Hinton broth based two-fold serial dilution method. Format: functional.
Data set [14] concerns Pseudomonas aeruginosa. In words: Antibacterial activity against Pseudomonas aeruginosa ATCC 27853 assessed as reduction in bacterial cell growth measured for 18 hrs by Mueller-Hinton broth based two-fold serial dilution method. The class given is functional.
Data set [15] concerns Klebsiella pneumoniae. The data set can be described thus: Antibacterial activity against Klebsiella pneumoniae ATCC 700603 assessed as reduction in bacterial cell growth measured for 18 hrs by Mueller-Hinton broth based two-fold serial dilution method. The class given is functional.

In brackets after ≈: the same amount, converted by molar mass. Bridge positions count the residues as written; N and C are the ends. Square brackets hold non-standard residues; d marks the D form. Peptide text beside a SMILES is read from it. I, II: the chains in the order shown. * marks the point of attachment. ξ: configuration not given here. NMeR = CN[C@@H](CCCNC(=N)N)C(=O)O; NMeI = CC[C@H](C)[C@H](NC)C(=O)O; Tridecanoyl = CCCCCCCCCCCCC(=O)*; NMeL = CN[C@@H](CC(C)C)C(=O)O; Undecanoyl = CCCCCCCCCCC(=O)*; Decanoyl = CCCCCCCCCC(=O)*; ξK = NCCCCC(N)C(=O)O

For orientation: MIC means the smallest concentration in the dilution series that meets the test's criterion for growth inhibition. Consider `CC[C@H](C)[C@H](NC(=O)[C@H](CCCNC(=N)N)NC(=O)[C@H](CCCCN)NC(=O)[C@H](CC(C)C)NC(=O)[C@H](CC(C)C)N(C)C(=O)CN)C(=O)N[C@@H](CCCCN)C(=O)N[C@H](C(=O)N[C@@H](CC(C)C)C(=O)N(C)[C@@H](CC(C)C)C(N)=O)[C@@H](C)O` (H-G[NMeL]LKRIKTL[NMeL]-NH2), for which the minimal inhibitory concentration (MIC) in the data set with Bacillus subtilis [1] is greater than 128 µM; in the data set with Klebsiella pneumoniae [2], greater than 128 µM; in the data set with Pseudomonas aeruginosa [3] it was 128 µM; in the data set on Staphylococcus aureus [4], greater than 128 µM; in the data set with Escherichia coli [5], greater than 128 µM.
Regarding `CC[C@H](C)[C@H](NC(=O)[C@H](CCCNC(=N)N)N(C)C(=O)[C@H](CCCCN)NC(=O)[C@H](CC(C)C)NC(=O)[C@H](CC(C)C)NC(=O)CN)C(=O)N[C@@H](CCCCN)C(=O)N[C@H](C(=O)N[C@@H](CC(C)C)C(=O)N[C@@H](CC(C)C)C(N)=O)[C@@H](C)O` (H-GLLK[NMeR]IKTLL-NH2), the MIC in the data set with Bacillus subtilis [1] is 128 µM; with Klebsiella pneumoniae [2], greater than 128 µM; in the data set with Pseudomonas aeruginosa [3], 128 µM; with Staphylococcus aureus [4], greater than 128 µM; in the data set on Escherichia coli [5], greater than 128 µM.
In the case of `CC[C@H](C)[C@H](NC(=O)[C@H](CCCNC(=N)N)NC(=O)[C@H](CCCCN)NC(=O)[C@H](CC(C)C)N(C)C(=O)[C@H](CC(C)C)NC(=O)CN)C(=O)N[C@@H](CCCCN)C(=O)N[C@H](C(=O)N(C)[C@@H](CC(C)C)C(=O)N[C@@H](CC(C)C)C(N)=O)[C@@H](C)O` (H-GL[NMeL]KRIKT[NMeL]L-NH2), the minimal inhibitory concentration (MIC) in the data set on Bacillus subtilis [1], in the data set with Klebsiella pneumoniae [2], with Pseudomonas aeruginosa [3], in the data set with Staphylococcus aureus [4] and with Escherichia coli [5] was greater than 128 µM throughout.
In the case of `CC[C@H](C)[C@@H](C(=O)N[C@@H](CCCCN)C(=O)N[C@H](C(=O)N[C@@H](CC(C)C)C(=O)N[C@@H](CC(C)C)C(N)=O)[C@@H](C)O)N(C)C(=O)[C@H](CCCNC(=N)N)NC(=O)[C@H](CCCCN)NC(=O)[C@H](CC(C)C)NC(=O)[C@H](CC(C)C)NC(=O)CN` (H-GLLKR[NMeI]KTLL-NH2), the MIC with Bacillus subtilis [1] is 128 µM; in the data set on Klebsiella pneumoniae [2] it was greater than 128 µM; in the data set with Pseudomonas aeruginosa [3] it was greater than 128 µM; in the data set on Staphylococcus aureus [4], greater than 128 µM; in the data set on Escherichia coli [5], greater than 128 µM.
With `CC[C@H](C)[C@H](NC(=O)[C@H](CCCNC(=N)N)NC(=O)[C@H](CCCCN)NC(=O)[C@H](CC(C)C)NC(=O)[C@H](CC(C)C)NC(=O)CN)C(=O)N[C@@H](CCCCN)C(=O)N[C@H](C(=O)N[C@@H](CC(C)C)C(=O)N[C@@H](CC(C)C)C(=O)NCCCCC(NC(=O)[C@H](CC(C)C)NC(=O)[C@H](CC(C)C)NC(=O)[C@@H](NC(=O)[C@H](CCCCN)NC(=O)[C@@H](NC(=O)[C@H](CCCNC(=N)N)NC(=O)[C@H](CCCCN)NC(=O)[C@H](CC(C)C)NC(=O)[C@H](CC(C)C)NC(=O)CN)[C@@H](C)CC)[C@@H](C)O)C(N)=O)[C@@H](C)O` (some centres not stated) (I: H-GLLKRIKTLL[ξK]-NH2 / II: H-GLLKRIKTLL; amide I:11-II:C), the MIC with Staphylococcus aureus [6] came to 16 µM (≈ 38.7 µg/mL); with Bacillus subtilis [7], 4 µM (≈ 9.67 µg/mL); in the data set on Escherichia coli [8], 8 µM (≈ 19.3 µg/mL); with Pseudomonas aeruginosa [9] it was 8 µM (≈ 19.3 µg/mL); in the data set with Klebsiella pneumoniae [10], 8 µM (≈ 19.3 µg/mL). This compound also came in with an HC10 with Erythrocyte of 51.2 µM.
For “I: Decanoyl-GLLKRIKTLL[ξK][ξK]-NH2 / II: Decanoyl-GLLKRIKTLL[ξK] / III: Decanoyl-GLLKRIKTLL / IV: Decanoyl-GLLKRIKTLL (amide I:11-IV:C, I:12-II:C, II:11-III:C)”, the minimal inhibitory concentration (MIC) in the data set on Staphylococcus aureus [6], with Bacillus subtilis [7], in the data set with Escherichia coli [8], with Pseudomonas aeruginosa [9] and in the data set with Klebsiella pneumoniae [10] was 256 µM in each case. The same compound showed an HC10 in the data set with Erythrocyte of 12.51 µM.
For `CCCCCCCCCCCCC(=O)NCC(=O)N[C@@H](CC(C)C)C(=O)N[C@@H](CC(C)C)C(=O)N[C@@H](CCCCN)C(=O)N[C@@H](CCCNC(=N)N)C(=O)N[C@H](C(=O)N[C@@H](CCCCN)C(=O)N[C@H](C(=O)N[C@@H](CC(C)C)C(=O)N[C@@H](CC(C)C)C(N)=O)[C@@H](C)O)[C@@H](C)CC` (Tridecanoyl-GLLKRIKTLL-NH2), the MIC in the data set with Staphylococcus aureus [11] turned out to be 8 µM (≈ 10.8 µg/mL); in the data set on Bacillus subtilis [12], 4 µM (≈ 5.4 µg/mL); with Escherichia coli [13], 8 µM (≈ 10.8 µg/mL); in the data set on Pseudomonas aeruginosa [14], 8 µM (≈ 10.8 µg/mL); with Klebsiella pneumoniae [15], 16 µM (≈ 21.6 µg/mL).
Regarding `CCCCCCCCCCC(=O)NCC(=O)N[C@@H](CC(C)C)C(=O)N[C@@H](CC(C)C)C(=O)N[C@@H](CCCCN)C(=O)N[C@@H](CCCNC(=N)N)C(=O)N[C@H](C(=O)N[C@@H](CCCCN)C(=O)N[C@H](C(=O)N[C@@H](CC(C)C)C(=O)N[C@@H](CC(C)C)C(N)=O)[C@@H](C)O)[C@@H](C)CC` (Undecanoyl-GLLKRIKTLL-NH2), the minimum inhibitory concentration (MIC) with Staphylococcus aureus [11] came to 8 µM (≈ 10.6 µg/mL); in the data set on Bacillus subtilis [12], 4 µM (≈ 5.29 µg/mL); in the data set on Escherichia coli [13], 8 µM (≈ 10.6 µg/mL); with Pseudomonas aeruginosa [14] it was 8 µM (≈ 10.6 µg/mL); in the data set on Klebsiella pneumoniae [15] it was 8 µM (≈ 10.6 µg/mL).

Values taken from ChEMBL document CHEMBL5608163, “Structure modification of anoplin for fighting resistant bacteria” (Eur J Med Chem, 2024).
